In this series the test system is K5/IL-18 Tg (+) mice. In words: Suppression of spontaneous dermatitis in K5/IL-18 transgenic (Tg (+)) mice, appearance and HE histopathology of back skin. It counts as in vivo. Conditions: 1% (10 mg/mL) applied to back skin for consecutive seven days. The text has this: The spontaneous dermatitis (A) refers to an inflammation that reaches its peak approximately on the 8th to 12th day after birth of an IL-18-introduced mouse and disappears after about four weeks and that has been identified by the inventors of the present invention for the first time. Pathologically speaking, in this inflammation, acanthosis (epidermal thickening) , hyperkeratosis, and inflammatory cell infiltrations that neutrophilic leukocytes are contained in dermis can be observed in dermal tissue, a slight sponge state is present in the epidermal base, and abscess formation in the cuticle due to epidermal neutrophilic infiltrations is observed (FIG. 3).
The evaluation method of the present invention can be performed as a method for screening agents for preventing/treating autoimmune dermatitis. The screening can be performed, for example, by the procedures of administrating an agent to be tested in either stage, before or after the occurrence of the peak of spontaneous dermatitis, and comparing mice without administration (control) in terms of the presence or the absence of peak occurrence, the size of the peak, the speed of peak disappearance or the like.
Next, the agent of preventing/treating dermatitis of the present invention will be described more specifically by way of examples. […]

In the case of `C[C@@H]1C[C@H]2[C@@H]3CCC4=CC(=O)C=C[C@]4(C)[C@@]3(F)[C@@H](O)C[C@]2(C)[C@@]1(O)C(=O)CO` [dexamethasone], the “death from side effects (share of treated group)” value is listed as “about a half”.

(Values after patent US20040191172A1, “Preventive or therapeutic agents for dermatitis or alopecia, evaluation method of the agents, and transgenic mouse” (priority 2003, published 2004).)
